PMC8319579, “Aspergillomarasmine A inhibits metallo-β-lactamases by selectively sequestering Zn^2+” (The Journal of Biological Chemistry, 2021)

Assays:
New Delhi MBL-1 (NDM-1) [1] = target: T1, New Delhi MBL-1 (NDM-1) (Klebsiella pneumoniae, UniProt C7C422); assay: time-dependent covalent fluorescent labelling by SDS-PAGE; blocked by ZnSO4; format: binding
T1 construct: gene blaNDM-1; His6-SUMO tag removed

New Delhi MBL-1 (NDM-1) [2] = target: T1, New Delhi MBL-1 (NDM-1); assay: steady-state hydrolysis by purified NDM-1, absorbance at […] nm; format: biochemical

T1 sequence (C7C422 29-270 limits assumed): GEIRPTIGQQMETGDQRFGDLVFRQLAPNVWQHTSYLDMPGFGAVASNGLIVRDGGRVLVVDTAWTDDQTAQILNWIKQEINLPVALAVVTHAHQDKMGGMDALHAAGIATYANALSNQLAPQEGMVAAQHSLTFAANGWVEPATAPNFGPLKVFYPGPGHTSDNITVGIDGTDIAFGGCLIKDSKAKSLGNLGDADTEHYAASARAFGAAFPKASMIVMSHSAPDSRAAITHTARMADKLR

SMILES	time-dependent covalent fluorescent labelling by SDS-PAGE; blocked by ZnSO4 (New Delhi MBL-1 (NDM-1) [1])	steady-state hydrolysis by purified NDM-1, absorbance at 485 nm (New Delhi MBL-1 (NDM-1) [2])
CN(C)c1cccc2c(S(=O)(=O)NCCN3C(=O)C=CC3=O)cccc12 [DM, N-[2-(dansylamino)ethyl]maleimide]	NDM-1 showed time-dependent fluorescent labeling by DM in response to AMA (Fig. 4B).	–
O=C(Cc1cccs1)N[C@@H]1C(=O)N2C(C(=O)O)=C(/C=C/c3ccc([N+](=O)[O-])cc3[N+](=O)[O-])CS[C@H]12 [nitrocefin]	–	we determined the steady-state kinetics of NDM-1–catalyzed hydrolysis of nitrocefin over fixed time intervals
